Measurements taken from article PMC5983452 (PLoS ONE, 2018).
Several values for one entry are separate records, joined by “and”; a condition that tells them apart may be missing. Identical values can stand only once. Entries after “also recorded” stand apart in the source; their conditions may differ. Counter-ions that a name gives are not always drawn. One block for each compound: values may come before it.

How the values were obtained:
A549 cells = experiment: Trametinib growth inhibition in combination with EPZ028862; type: cell-based; settings: 2, 5 and 7 days
Source text: Plotted data is the average of three biological replicates. Error bars represent standard deviation. (PDF) Click here for additional data file.

in vitro [1] = type: in vitro ADME, cyno-monkeys; settings: male, monkey, microsomes, pH 7.4
in vitro [2] = type: in vitro ADME, humans
[3] = Rat pharmacokinetic study; type: in vivo, male Sprague Dawley rats; settings: male Sprague Dawley
Description: 2. […] Food was returned 4 hours after dosing. […] 4. […] Food was returned 4 hours after dosing. […] Supplemental Results:SMYD2 compound characterization […] The […] nM (Figure S8A).

[4] = test system: panel of 140 cell lines grown in matrigel; experiment: cells; settings: read-out: growth effects in panel of 140 cell lines grown in matrigel (none observed up to)
in vitro [5] = settings: male, CD-1, mouse, plasma, pH 7.4
Description: (§1) Caco-2 permeability. Caco-2 cells (obtained from the ATCC), between passage numbers 40 to 60, were seeded onto Millipore
(§2) Multiscreen plates at 1x10^5 cells/cm2 in Dulbecco's Modified Eagle Medium. Media was changed every two or three days. On
(§3) Day 20, the permeability study was performed using Hanks Balanced Salt Solution (HBSS) pH 7.4 buffer with 25 mM HEPES and
(§4) Incubations were carried out in an atmosphere of 5% CO2 with a relative humidity of
(§5) The monolayers were prepared by rinsing both basolateral and apical surfaces twice with HBSS at 37°C. Cells were
(§6) then incubated with HBSS in both apical and basolateral compartments for 40 min to stabilize physiological parameters. HBSS […]
(§7) removed and apical and basolateral samples diluted for analysis by LC-MS/MS. Permeability was assessed in duplicate, on two
(§8) different occasions. […] Compounds were quantified by LC-MS/MS analysis using a 5 point calibration curve. The starting concentration (C0) was determined from the dosing solution and
(§9) experimental recovery calculated from C0 and both apical and basolateral compartment concentrations. […]
(§10) (Papp) for each compound was calculated as: (dQ/dt)/(C0xA), where dQ/dt is the rate of permeation of the drug across the cells, C0 […]
(§11) Plasma protein binding. Plasma protein binding was assessed by equilibrium dialysis utilizing the HT-dialysis cell format with a […]

in vitro [6] = settings: human, plasma, pH 7.4, Human fu (unbound fraction)
Description: as §1, §2, §3, §4, §5, §6, §7, §8, §9, §10, §11

lung cancer cell lines = settings: read-out: impact on proliferation of NSCLC and other lung cancer cell lines (none at concentrations as high as)
Caco-2 permeability = settings: human, 10 µM
Description: as §1, §2, §3, §4, §5
(§12) then incubated with HBSS in both apical and basolateral compartments for 40 min to stabilize physiological parameters. HBSS
(§13) was then removed from the apical or basolateral compartment and replaced with 10 µM test compound dosing solutions (1% final
(§14) DMSO). The pH of supplemented HBSS was 6.5 and 7.5 in the apical and basolateral compartments, respectively. The apical
(§15) compartment inserts were then placed into ‘companion’ plates containing fresh HBSS.
as §7
(§16) different occasions. On each plate atenolol and propanolol were run as controls. Compounds were quantified by LC-MS/MS analysis using a 5 point calibration curve. The starting concentration (C0) was determined from the dosing solution and
(§17) experimental recovery calculated from C0 and both apical and basolateral compartment concentrations. The permeability coefficient
(§18) (Papp) for each compound was calculated as: (dQ/dt)/(C0xA), where dQ/dt is the rate of permeation of the drug across the cells, C0
(§19) is the donor compartment concentration at time zero and A is the area of the cell monolayer.
(§20) Plasma protein binding. Plasma protein binding was assessed by equilibrium dialysis utilizing the HT-dialysis cell format with a
(§21) cellulose semi-permeable membrane (molecular weight cut-off of 5000 Da). Solutions of test compounds (1 µM, 0.5% final
(§22) DMSO concentration) were prepared in isotonic phosphate buffer (pH 7.4) and 100% pooled male CD-1 mouse plasma. The
(§23) buffer solution was added to one side of the membrane and the plasma solution to the other side. Incubations were performed in
(§24) Haloperidol was incubated in parallel as the control compound for each species. At the end of the incubation time, samples were taken from both sides of the membrane.
(§25) Following protein precipitation, the samples were analyzed by LC-MS/MS using two sets of calibration standards for protein free
(§26) (7 points) and protein containing solutions (6 points). Samples were quantified using standard curves prepared in the equivalent
(§27) matrix. The fraction unbound in plasma (fu) was calculated using the following equation:
(§28) Where, PC = sample concentration in protein containing side, PF = sample concentration in protein free side, and VCorrection =
(§29) correction factor for the volume shift i.e. ratio of the volume of the protein after dialysis to that before dialysis.

Caco-2 cells = experiment: Caco-2 permeability
Description: as §1, §2, §3, §4, §5, §12, §13, §14, §15, §7, §16, §17, §18, §19, §20, §21, §22, §23, §24, §25, §26, §27, §28, §29

[7] = Plasma protein binding (equilibrium dialysis), human; settings: pH 7.4, Human fu (unbound fraction)
Description: as §1, §2, §3, §4, §5, §6, §7, §8, §9, §10, §11

SMYD3 = target: T1, SMYD3 (Homo sapiens, UniProt Q9H7B4); experiment: SMYD3 biochemical methylation assay (3H-SAM, GST-MAP3K2/MEKK2 substrate); design: Protein purification of both isoforms of full length SMYD3 was performed as previously reported; made in house; settings: tested in duplicate; read-out: selectivity panel result, SMYD3 (off-target)
T1 sequence (Q9H7B4 1-428): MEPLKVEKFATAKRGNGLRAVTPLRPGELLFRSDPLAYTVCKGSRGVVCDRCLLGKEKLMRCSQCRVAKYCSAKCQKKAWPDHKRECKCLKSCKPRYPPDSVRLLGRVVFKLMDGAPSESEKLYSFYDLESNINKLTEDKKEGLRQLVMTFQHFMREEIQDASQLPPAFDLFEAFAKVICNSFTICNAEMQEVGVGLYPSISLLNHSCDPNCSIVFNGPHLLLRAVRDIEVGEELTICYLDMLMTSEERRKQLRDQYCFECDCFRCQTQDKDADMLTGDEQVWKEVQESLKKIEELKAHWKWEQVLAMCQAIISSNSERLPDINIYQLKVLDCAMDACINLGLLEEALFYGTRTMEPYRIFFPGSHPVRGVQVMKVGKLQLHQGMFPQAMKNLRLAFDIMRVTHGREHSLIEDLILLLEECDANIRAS
Description: SMYD3 assays were performed as previously described using N-terminally GST-tagged MAP3K2 protein substrate. […] Reactions were conducted at room temperature with enzyme and inhibitor incubated for 30 minutes before initiating the reaction with substrates. Dose-response curves were tested in duplicate in each experiment. […] Quenched reactions were transferred to a streptavidin-coated flashplate (Perkin Elmer) for capture of the biotinylated peptide. After 2 h incubation at room temperature, the flashplate was washed once with 0.1% Tween-20 and read on a Perkin Elmer Topcount NXT plate reader. Substrate apparent KM values were determined by measuring the initial velocities (v0) in duplicate while varying one substrate at fixed concentration of the second substrate.
Mechanism of inhibition was determined by measuring the inhibitor IC50 values while varying the concentration of one substrate at a fixed concentration of the second substrate equal to its KM value.

SMYD2 [8] = target: T2, SMYD2 (Homo sapiens, UniProt Q9NRG4); experiment: SPR binding assay EPZ033294/SMYD2 (SensiQ); design: Full length FLAG-SMYD2 and C-terminally Avi-tagged full length SMYD2 (SMYD2-Avi) were cloned into pFastbac vectors; FLAG (N); His tag with TEV cleavage site (N, cleaved yes); made in house; host or cells: Sf9 insect cells (baculovirus); settings: 15°C, 10 µM SAM in running buffer; read-out: dissociation constant (KD) by SPR
T2 sequence (Q9NRG4 whole entry): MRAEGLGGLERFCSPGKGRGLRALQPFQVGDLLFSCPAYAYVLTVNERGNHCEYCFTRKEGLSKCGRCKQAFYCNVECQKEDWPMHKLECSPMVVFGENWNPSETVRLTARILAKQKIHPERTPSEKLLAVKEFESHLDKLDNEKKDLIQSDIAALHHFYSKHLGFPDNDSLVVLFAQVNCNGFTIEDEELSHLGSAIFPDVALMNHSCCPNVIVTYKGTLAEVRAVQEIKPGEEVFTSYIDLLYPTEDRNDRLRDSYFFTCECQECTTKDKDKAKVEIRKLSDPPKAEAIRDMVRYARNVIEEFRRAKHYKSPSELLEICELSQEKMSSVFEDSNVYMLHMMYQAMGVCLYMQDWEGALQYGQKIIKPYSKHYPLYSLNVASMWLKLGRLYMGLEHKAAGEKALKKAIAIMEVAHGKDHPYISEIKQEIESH
Description: The running buffer contained 25 mM Tris-HCl pH 8.0, 150 mM NaCl, 5 mM DTT, 10 µM ZnCl2, 0.05% Tween-20, 10 µM SAM, and 2% DMSO. Avi-tagged biotinylated SMYD2 was immobilized on a neutravidin-coupled BioCap chip up to 6000 RU. Streptavidin on the reference cell was blocked with biocytin. […] Dissociation time was 1000 sec. Analysis of double-referenced data was performed using the 1:1 binding model in QDAT data analysis tool (SensiQ Technologies Inc.).

SMYD2 [9] = target: T2, SMYD2; experiment: ITC binding assay EPZ033294/SMYD2; design: Full length FLAG-SMYD2 and C-terminally Avi-tagged full length SMYD2 (SMYD2-Avi) were cloned into pFastbac vectors; FLAG (N); His tag with TEV cleavage site (N, cleaved yes); made in house; host or cells: Sf9 insect cells (baculovirus); settings: 25°C
Description: The assay buffer contained 20 mM Tris-HCl pH 8.0, 100 mM sodium chloride, 1 mM TCEP, 5% glycerol, 50 μM S-adenosylmethionine (SAM), and 0.1% DMSO. […] The assay background signal was generated by injecting compound into buffer in the absence of enzyme and subtracted from the experimental data. The binding isotherm was fitted using the single site model in the Origin software for data analysis (OriginLab, Northampton, MA).

Structure (SMILES): NC1CCC(S(=O)(=O)N2C3CCC2CC(NC(=O)c2cc(C4CC4)on2)C3)CC1 [EPZ028862, N-((1R,3R,5S)-8-((1r,4R)-4-aminocyclohexylsulfonyl)-8-aza-bicyclo[3.2.1]octan-3-yl)-5-cyclopropylisoxazole-3-carboxamide hydrochloride]
- effect of 1 μM EPZ028862 on growth inhibition by trametinib (A549 cells): unaffected; also recorded: no effect
- microsomal CLint at 1 µM (in vitro [1]): 3.2 µL/min/mg
- microsomal CLint at 1 µM (in vitro [2]; both sexes, human, microsomes, pH 7.4, CLint measured with liver microsomes): < 3 µL/min/mg
- CLint measured with liver microsomes, Human (in vitro [2]; both, 1 µM, pH 7.4): 3.3 µL/min/mg microsomal protein
- bioavailability ([3]; plasma, IV 1 mg/kg, PO 5 mg/kg): 59 ± 10%
- half-life ([3]; plasma, IV 1 mg/kg, PO 5 mg/kg): 2.1 ± 0.2 h
- clearance ([3]; plasma, IV 1 mg/kg, read-out: CLp): 32.7 ± 4.4 mL/min/kg
- Vd ([3]; plasma, IV 1 mg/kg, read-out: Vss): 4.4 ± 0.1 L/kg
- Tmax ([3]; plasma, PO 5 mg/kg): 1 h
- CL renal ([3]; urine and plasma, IV 1 mg/kg): 21 ± 6 mL/min/kg
- IC50 [4]: > 25000 nM
- fraction unbound at 16 h, 1 µM (in vitro [5]): 0.51
- fraction unbound at 16 h, 1 µM (in vitro [6]): 0.71
- IC50 (lung cancer cell lines): > 25000 nM

- Papp A→B at 120 min, 10 µM (Caco-2 permeability; Caco-2, Papp,AB, apical pH 6.5 / basolateral pH 7.5, 120 min): 2.18 ×10⁻⁶ cm/s
- Papp B→A at 120 min, 10 µM (Caco-2 permeability; Caco-2, Papp,BA, 120 min): 64.3 ×10⁻⁶ cm/s
- Caco-2 assay outcome in words (Caco-2 cells): both permeable and an efflux substrate
- fraction unbound at 16 h, 1 µM [7]: 0.13
- IC50 (SMYD3): > 10000 nM
- Kd (SMYD2 [8]): 5 nM
- stoichiometry of binding (N) by ITC (SMYD2 [9]): 0.7 ± 1 and 0.7
- Kd (SMYD2 [9]; 50 μM SAM, three test occasions, read-out: dissociation constant KD by ITC): 8.3 ± 8.2 nM
Structure (SMILES): O=C(NC1CN(Cc2cnn(Cc3ccc(Cl)cc3)c2)C1)c1cn(C2CC2)nn1 [EPZ033294]
